From article PMC6934184, “Selective DNA-PKcs inhibition extends the therapeutic index of localized radiotherapy and chemotherapy” (The Journal of Clinical Investigation, 2019)

Molecular target: T1, FGR (Homo sapiens, UniProt P09769)
T1 construct: purchased Thermo Fisher Scientific (Life Technologies) SelectScreen
Test: SelectScreen Z'LYTE
Assay type: biochemical
Procedure, shortened: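 SelectScreen broad panel; activity (Z'LYTE, Adapta) plus binding formats. ATP: Km app for CSF1R Z'LYTE; 10 for CAMK1 Adapta. Readout = % per kinase.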

T1 sequence (P09769 whole entry): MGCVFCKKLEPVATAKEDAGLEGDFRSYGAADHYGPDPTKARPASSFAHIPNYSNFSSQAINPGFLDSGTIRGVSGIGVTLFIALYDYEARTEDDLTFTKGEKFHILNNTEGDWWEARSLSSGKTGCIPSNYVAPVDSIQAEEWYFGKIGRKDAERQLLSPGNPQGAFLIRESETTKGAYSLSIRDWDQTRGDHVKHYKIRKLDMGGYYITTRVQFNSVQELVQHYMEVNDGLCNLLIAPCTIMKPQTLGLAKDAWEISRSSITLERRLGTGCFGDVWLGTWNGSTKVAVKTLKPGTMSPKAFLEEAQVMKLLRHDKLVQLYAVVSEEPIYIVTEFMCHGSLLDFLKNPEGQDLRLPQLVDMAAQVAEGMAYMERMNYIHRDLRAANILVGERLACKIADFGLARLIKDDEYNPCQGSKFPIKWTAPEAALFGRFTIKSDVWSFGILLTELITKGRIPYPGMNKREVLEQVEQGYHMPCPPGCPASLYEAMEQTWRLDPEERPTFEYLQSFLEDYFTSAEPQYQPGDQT

Structure (SMILES): CN(C(=O)CN1CCOCC1)c1ccc2sc3c(-c4cccc5c(=O)cc(N6CC7CCC(C6)O7)oc45)cccc3c2c1 [NU5455]
- inhibition at 1 µM: 12.1%
